# Patent US20220007644A1, “COMPOSITIONS COMPRISING PYRIDINE CARBOXYLATE HERBICIDES WITH PHOTOSYSTEM II AND OPTIONAL HPPD INHIBITOR HERBICIDES” (Corteva Agriscience LLC, priority 2018, published 2022)
# Legend:
# Format in all cases: in vivo
# [1] = system: AMARE, Amaranthus retroflexus (pigweed); experiment: Greenhouse postemergence herbicidal effect (visual injury, 20-22 d)
# Excerpt: (§1) Greenhouse Trial Methodology—Evaluation of Postemergence Herbicidal Effect
# (§2) Seeds of the desired test plant species were planted in a 90:10% v/v (volume/volume) mixture of PRO-MIX® BX (Premier Tech Horticulture, Quakertown, Pa., USA) and PROFILE®GREENS GRADE™ (Profile Products LLC, Buffalo Grove, Ill., USA) planting mixture, which typically has a pH of 5.2 to 6.2 and an organic matter content of at least 50 percent, in plastic pots with a surface area of 103.2 square centimeters (cm^2). In some aspects, to help ensure good germination and healthy plants, a fungicide treatment and/or other chemical or physical treatment was applied. The plants were grown for 7-36 days (d) in a greenhouse with an approximate 14-hour (h) photoperiod which was maintained at about 23° C. during the day and 22° C. during the night. Nutrients and water were added on a regular basis and supplemental lighting was provided with overhead metal halide 1000-Watt lamps as necessary. The plants were employed for testing when they reached the second or third true leaf stage.
# (§3) Emulsifiable concentrates of each of each pyridine carboxylate herbicide (Compound A or Compound B) were prepared at 100 grams acid equivalent per liter (g ae/L). The emulsifiable concentrates also included a safener, cloquintocet-mexyl, at 120 grams active ingredient per liter (g ai/L), unless otherwise noted below. An aliquot of each emulsifiable concentrate was placed in a 25 mL glass vial and diluted with an aqueous mixture of 1.25% (v/v) ACTIROB® B esterified rapeseed oil (Bayer Crop Science, Research Triangle Park, N.C., USA) or MSO® Concentrate with LECI-TECH® methylated soybean oil (Loveland Products, Loveland, Colo., USA) to obtain concentrated stock solutions at the highest application rate for each herbicide, based upon a 12 milliliter (mL) application volume at a rate of 187 liters per hectare (L/ha). The concentrated stock solutions were further diluted with an aqueous mixture of 1.25% v/v ACTIROB® B or MSO® Concentrate with LECI-TECH® to obtain stock solutions at reduced application rates for each herbicide. Spray solutions of the herbicide combinations (Compound A or Compound B plus PS-II herbicide and optional HPPD herbicide) were prepared by adding weighed amounts or aliquots of the PS-II herbicide and optional HPPD herbicide to the stock solutions of Compound A or Compound B to form 12-mL spray solutions in two- or three-way combinations.
# (§4) The spray solutions were applied to the plant material with an overhead Mandel track sprayer equipped with 8002E nozzles calibrated to deliver 187 L/ha over an application area of 0.503 square meters (m^2) at a spray height of 18 inches ([…] centimeters (cm)) above the average plant canopy. Control plants were sprayed in the same manner with the solvent blank. All pyridine carboxylate herbicide (component a) application rates are given as “g ae/ha” and all PS II inhibitor herbicide (component b) and HPPD inhibitor herbicide (component c) application rates are given as “g ai/ha.”
# (§5) The treated plants and control plants were placed in a greenhouse as described above and watered by sub-irrigation to prevent wash-off of the test compounds. After 20-22 d, the condition of the test plants as compared with that of the control plants was determined visually and scored on a scale of 0 to 100 percent where 0 corresponds to no injury and 100 corresponds to complete kill.
# [2] = system: BRSNW, Brassica napus (winter rape); experiment: as above
# Excerpt: as §1, §2, §3, §4, §5
# [3] = system: CHEAL, Chenopodium album L. (common lambsquarters); experiment: as above
# Excerpt: as §1, §2, §3, §4, §5
# [4] = system: CIRAR, Cirsium arvense (Canada thistle); experiment: as above
# Excerpt: as §1, §2, §3, §4, §5
# [5] = system: KCHSC, Kochia scoparia (kochia); experiment: as above
# Excerpt: as §1, §2, §3, §4, §5
# [6] = system: MATCH, Matricaria chamomilla (wild chamomile); experiment: as above
# Excerpt: as §1, §2, §3, §4, §5
# [7] = system: POLCO, Polygonum convolvulus (wild buckwheat); experiment: as above
# Excerpt: as §1, §2, §3, §4, §5
# [8] = system: SASKR, Salsola kali (Russian thistle); experiment: as above
# Excerpt: as §1, §2, §3, §4, §5
# [9] = system: SINAR, Sinapis arvensis (wild mustard); experiment: as above
# Excerpt: as §1, §2, §3, §4, §5
# [10] = system: HORVS, Hordeum vulgare (spring barley); experiment: Greenhouse postemergence phytotoxicity on crop (visual injury, 20-22 d)
# Excerpt: as §1, §2, §3, §4, §5
# [11] = system: TRZAS, Triticum aestivum (spring wheat); experiment: as above
# Excerpt: as §1, §2, §3, §4, §5
# [12] = system: ABUTH, Abutilon theophrasti (velvetleaf); experiment: Greenhouse postemergence herbicidal effect (visual injury, 20-22 d); settings: 5 g ai/ha alone
# Excerpt: as §1, §2, §3, §4, §5
# [13] = system: GLXMA, Glycine max (soybean); experiment: as above; settings: 5 g ai/ha alone
# Excerpt: as §1, §2, §3, §4, §5
# [14] = system: IPOHE, Ipomoea hederacea (ivyleaf morningglory); experiment: as above; settings: 5 g ai/ha alone
# Excerpt: as §1, §2, §3, §4, §5
# [15] = system: SORVU, Sorghum vulgare (grain sorghum); experiment: as above; settings: 5 g ai/ha alone
# Excerpt: as §1, §2, §3, §4, §5
# [16] = system: BRSNN, Brassica napus (spring rape); experiment: as above; settings: 125 g ai/ha alone
# Excerpt: as §1, §2, §3, §4, §5
# [17] = Fallopia convolvulus, post-emergence, read-out: visual injury Obs
compound,measurement,setting,value
"CCOC(=O)Nc1cccc(OC(=O)Nc2ccccc2)c1 [Desmedipham, 3-ethoxycarbonylaminophenyl phenylcarbamate]",visual injury Obs,[1]; 162.5 g ai/ha alone,15%
same,visual injury Obs,[2]; 162.5 g ai/ha alone,0%
same,visual injury Obs,[3]; 162.5 g ai/ha alone,0%
same,visual injury Obs,[4]; 162.5 g ai/ha alone,10%
same,visual injury Obs,[5]; 162.5 g ai/ha alone,0%
same,visual injury Obs,[6]; 162.5 g ai/ha alone,0%
same,pest or weed control at 162.5 g/ha,[7]; [17],0%
same,visual injury Obs,[8]; 162.5 g ai/ha alone,0%
same,visual injury Obs,[9]; 162.5 g ai/ha alone,0%
same,visual injury Obs,[10]; 162.5 g ai/ha alone,0%
same,visual injury Obs,[11]; 162.5 g ai/ha alone,0%
"CN(C)C(=O)Nc1ccc(Cl)c(Cl)c1 [Diuron, 3-(3,4-dichlorophenyl)-1,1-dimethylurea]",visual injury Obs,[1]; 220 g ai/ha alone,98%
same,visual injury Obs,[2]; 220 g ai/ha alone,5%
same,visual injury Obs,[3]; 220 g ai/ha alone,100%
same,visual injury Obs,[4]; 220 g ai/ha alone,40%
same,visual injury Obs,[5]; 220 g ai/ha alone,90%
same,visual injury Obs,[6]; 220 g ai/ha alone,15%
same,pest or weed control at 220 g/ha,[7]; [17],5%
same,visual injury Obs,[8]; 220 g ai/ha alone,40%
same,visual injury Obs,[9]; 220 g ai/ha alone,5%
same,visual injury Obs,[10]; 220 g ai/ha alone,10%
same,visual injury Obs,[11]; 220 g ai/ha alone,0%
"CSc1nnc(C(C)(C)C)c(=O)n1N [Metribuzin, 4-amino-6-tert-butyl-3-methythio-1,2,4-triazin-5(4H)-one]",visual injury,[1]; 25 g ai/ha alone,0%
same,visual injury,[2]; 25 g ai/ha alone,0%
same,visual injury,[3]; 25 g ai/ha alone,3%
same,visual injury,[4]; 25 g ai/ha alone,3%
same,visual injury,[5]; 25 g ai/ha alone,0%
same,visual injury,[6]; 25 g ai/ha alone,0%
same,visual injury,[7]; 25 g ai/ha alone,0%
same,visual injury,[8]; 25 g ai/ha alone,0%
same,visual injury,[9]; 25 g ai/ha alone,18%
same,visual injury,[10]; 25 g ai/ha alone,0%
same,visual injury,[11]; 25 g ai/ha alone,0%
"CCC(=O)Nc1ccc(Cl)c(Cl)c1 [Propanil, 3′,4′-dichloropropionanilide, reference compound]",visual injury Obs,[12],10%
same,visual injury Obs,[4]; 5 g ai/ha alone,28%
same,visual injury Obs,[13],23%
same,visual injury Obs,[14],38%
same,pest or weed control at 5 g/ha,"[7]; Fallopia convolvulus, post-emergence, 5 g ai/ha alone, read-out: visual injury Obs",20%
same,visual injury Obs,[15],15%
"CCCCCCCCSC(=O)Oc1cc(Cl)nnc1-c1ccccc1 [Pyridate, O-6-chloro-3-phenylpyridazin-4-yl S-octyl thiocarbonate]",visual injury Obs,[16],15%
same,visual injury Obs,[3]; 125 g ai/ha alone,0%
same,visual injury Obs,[5]; 125 g ai/ha alone,0%
same,pest or weed control at 125 g/ha,"[7]; Fallopia convolvulus, post-emergence, 125 g ai/ha alone, read-out: visual injury Obs",0%
same,visual injury Obs,[8]; 125 g ai/ha alone,0%
same,visual injury Obs,[9]; 125 g ai/ha alone,0%
same,visual injury Obs,[10]; 125 g ai/ha alone,5%
same,visual injury Obs,[11]; 125 g ai/ha alone,0%
"CNC(=O)N(C)c1nnc(C(C)(C)C)s1 [Tebuthiuron, 1-(5-tert-butyl-1,3,4-thiadiazol-2-yl)-1,3-dimethylurea, reference compound]",visual injury Obs,[1]; 280 g ai/ha alone,88%
same,visual injury Obs,[2]; 280 g ai/ha alone,45%
same,visual injury Obs,[3]; 280 g ai/ha alone,98%
same,visual injury Obs,[4]; 280 g ai/ha alone,40%
same,visual injury Obs,[5]; 280 g ai/ha alone,23%
same,visual injury Obs,[6]; 280 g ai/ha alone,25%
same,pest or weed control at 280 g/ha,[7]; [17],40%
same,visual injury Obs,[9]; 280 g ai/ha alone,35%
same,visual injury Obs,[10]; 280 g ai/ha alone,28%
same,visual injury Obs,[11]; 280 g ai/ha alone,0%
